From the NIST ThermoML archive (doi:10.1021/je050305z)

Conditions: Gas, Hot wire method

COC [dimethyl ether]
Conditions	thermal conductivity [W/m/K]
266.62 K, 148.1 kPa	0.01348
267.77 K, 148.1 kPa	0.01359
268.94 K, 148.1 kPa	0.01363
276.2 K, 155.8 kPa	0.01468
276.2 K, 207.5 kPa	0.01475
277.09 K, 207.5 kPa	0.01483
277.12 K, 155.8 kPa	0.01476
278.14 K, 155.8 kPa	0.01482
278.17 K, 207.5 kPa	0.01489
285.91 K, 253.2 kPa	0.01594
286.05 K, 144.6 kPa	0.01592
286.67 K, 253.2 kPa	0.016
286.89 K, 144.6 kPa	0.01605
287.68 K, 253.2 kPa	0.01614
287.99 K, 144.6 kPa	0.01606
295.96 K, 253.2 kPa	0.01725
296.02 K, 352.9 kPa	0.01726
296.03 K, 154.5 kPa	0.01715
296.69 K, 352.9 kPa	0.01736
296.76 K, 253.2 kPa	0.01733
296.8 K, 154.5 kPa	0.01728
297.39 K, 352.9 kPa	0.0174
297.64 K, 253.2 kPa	0.01739
297.76 K, 154.5 kPa	0.01734
305.64 K, 155.2 kPa	0.01827
305.64 K, 502.4 kPa	0.01848
305.8 K, 352.8 kPa	0.01842
306.69 K, 155.2 kPa	0.01839
306.69 K, 502.4 kPa	0.01861
306.8 K, 352.8 kPa	0.01854
307.53 K, 155.2 kPa	0.01852
307.53 K, 502.4 kPa	0.01872
307.82 K, 352.8 kPa	0.01861
315.68 K, 496.3 kPa	0.01958
315.77 K, 348.9 kPa	0.01952
316.05 K, 153.9 kPa	0.01955
316.35 K, 700.4 kPa	0.02006
316.55 K, 496.3 kPa	0.01971
316.56 K, 700.4 kPa	0.01992
316.75 K, 348.9 kPa	0.01967
317.06 K, 153.9 kPa	0.01957
317.2 K, 700.4 kPa	0.01999
317.63 K, 496.3 kPa	0.01983
317.81 K, 348.9 kPa	0.01977
318.26 K, 153.9 kPa	0.01971
325.16 K, 1120.2 kPa	0.02135
325.31 K, 883.7 kPa	0.02119
325.41 K, 701.6 kPa	0.02104
325.53 K, 500.8 kPa	0.02091
325.64 K, 348 kPa	0.0208
325.83 K, 151.5 kPa	0.02082
325.88 K, 1120.2 kPa	0.02135
326.11 K, 883.7 kPa	0.02133
326.2 K, 701.6 kPa	0.02113
326.36 K, 500.8 kPa	0.021
326.53 K, 348 kPa	0.02093
326.73 K, 1120.2 kPa	0.02156
326.79 K, 151.5 kPa	0.02087
326.99 K, 883.7 kPa	0.02145
327.16 K, 701.6 kPa	0.02125
327.38 K, 500.8 kPa	0.02116
327.53 K, 348 kPa	0.02098
327.88 K, 151.5 kPa	0.02094
335.18 K, 1196.9 kPa	0.02256
335.35 K, 898.7 kPa	0.02238
335.43 K, 705.2 kPa	0.02212
335.48 K, 353.4 kPa	0.02197
335.54 K, 505.2 kPa	0.02204
335.66 K, 152.2 kPa	0.02198
335.88 K, 1196.9 kPa	0.02272
336.11 K, 898.7 kPa	0.02244
336.23 K, 705.2 kPa	0.02226
336.32 K, 353.4 kPa	0.02209
336.37 K, 505.2 kPa	0.02217
336.45 K, 1196.9 kPa	0.0228
336.55 K, 152.2 kPa	0.02211
336.74 K, 898.7 kPa	0.0225
336.91 K, 705.2 kPa	0.02231
337.06 K, 505.2 kPa	0.02229
337.25 K, 353.4 kPa	0.02223
337.54 K, 152.2 kPa	0.02207
345.11 K, 1503.9 kPa	0.02418
345.23 K, 1200.4 kPa	0.0239
345.35 K, 897.3 kPa	0.02352
345.47 K, 700 kPa	0.02344
345.57 K, 502.5 kPa	0.02341
345.59 K, 1503.9 kPa	0.02427
345.67 K, 352.7 kPa	0.02338
345.74 K, 1200.4 kPa	0.02399
345.88 K, 154.3 kPa	0.02322
345.9 K, 897.3 kPa	0.02363
346.03 K, 700 kPa	0.0235
346.12 K, 1503.9 kPa	0.0244
346.15 K, 502.5 kPa	0.02351
346.26 K, 352.7 kPa	0.0234
346.29 K, 1200.4 kPa	0.02408
346.49 K, 897.3 kPa	0.02372
346.52 K, 154.3 kPa	0.02324
346.64 K, 700 kPa	0.02364
346.82 K, 502.5 kPa	0.02361
346.93 K, 352.7 kPa	0.0235
347.27 K, 154.3 kPa	0.02327
354.82 K, 2226 kPa	0.02637
355.11 K, 1777.8 kPa	0.02567
355.2 K, 1497.3 kPa	0.02536
355.22 K, 2226 kPa	0.02653
355.33 K, 1194.9 kPa	0.02506
355.47 K, 872.5 kPa	0.02483
355.55 K, 701.6 kPa	0.02472
